# Laboratory results as given in PMC7190413 (Journal of cystic fibrosis : official journal of the …, 2019).
# Like-named read-outs stand apart in the source and are kept apart here.
# What was measured:
# S1251N-CFTR = test: Fractional PM activity; assay type: cell-based, human; details: CFBE; forskolin plus single potentiator; Fig. 5f
# G551D-CFTR [1] = biological target: T1, G551D-CFTR (Homo sapiens, UniProt P13569, G551D); test: Fractional PM activity; assay type: cell-based; details: CFBE; forskolin-stimulated, mono-therapy or dual potentiator treatment; Fig. 5d
# G551D-CFTR [2] = biological target: T1, G551D-CFTR; test: Short-circuit current; assay type: cell-based; details: for forskolin-activated Isc relative to that of WT-CFTR: forskolin 20 μM
# G551D-CFTR [3] = biological target: T1, G551D-CFTR; test: Short-circuit current; assay type: cell-based; details: CFBE; forskolin 20 μM then acute VX-770 10 μM; Fig. 5a,b
# G551D-CFTR [4] = biological target: T1, G551D-CFTR; test: Single-channel activity in reconstituted planar phospholipid bilayer; assay type: biochemical; details: PKA-activated, 28–30°C
# T1 sequence (P13569 whole entry G551D): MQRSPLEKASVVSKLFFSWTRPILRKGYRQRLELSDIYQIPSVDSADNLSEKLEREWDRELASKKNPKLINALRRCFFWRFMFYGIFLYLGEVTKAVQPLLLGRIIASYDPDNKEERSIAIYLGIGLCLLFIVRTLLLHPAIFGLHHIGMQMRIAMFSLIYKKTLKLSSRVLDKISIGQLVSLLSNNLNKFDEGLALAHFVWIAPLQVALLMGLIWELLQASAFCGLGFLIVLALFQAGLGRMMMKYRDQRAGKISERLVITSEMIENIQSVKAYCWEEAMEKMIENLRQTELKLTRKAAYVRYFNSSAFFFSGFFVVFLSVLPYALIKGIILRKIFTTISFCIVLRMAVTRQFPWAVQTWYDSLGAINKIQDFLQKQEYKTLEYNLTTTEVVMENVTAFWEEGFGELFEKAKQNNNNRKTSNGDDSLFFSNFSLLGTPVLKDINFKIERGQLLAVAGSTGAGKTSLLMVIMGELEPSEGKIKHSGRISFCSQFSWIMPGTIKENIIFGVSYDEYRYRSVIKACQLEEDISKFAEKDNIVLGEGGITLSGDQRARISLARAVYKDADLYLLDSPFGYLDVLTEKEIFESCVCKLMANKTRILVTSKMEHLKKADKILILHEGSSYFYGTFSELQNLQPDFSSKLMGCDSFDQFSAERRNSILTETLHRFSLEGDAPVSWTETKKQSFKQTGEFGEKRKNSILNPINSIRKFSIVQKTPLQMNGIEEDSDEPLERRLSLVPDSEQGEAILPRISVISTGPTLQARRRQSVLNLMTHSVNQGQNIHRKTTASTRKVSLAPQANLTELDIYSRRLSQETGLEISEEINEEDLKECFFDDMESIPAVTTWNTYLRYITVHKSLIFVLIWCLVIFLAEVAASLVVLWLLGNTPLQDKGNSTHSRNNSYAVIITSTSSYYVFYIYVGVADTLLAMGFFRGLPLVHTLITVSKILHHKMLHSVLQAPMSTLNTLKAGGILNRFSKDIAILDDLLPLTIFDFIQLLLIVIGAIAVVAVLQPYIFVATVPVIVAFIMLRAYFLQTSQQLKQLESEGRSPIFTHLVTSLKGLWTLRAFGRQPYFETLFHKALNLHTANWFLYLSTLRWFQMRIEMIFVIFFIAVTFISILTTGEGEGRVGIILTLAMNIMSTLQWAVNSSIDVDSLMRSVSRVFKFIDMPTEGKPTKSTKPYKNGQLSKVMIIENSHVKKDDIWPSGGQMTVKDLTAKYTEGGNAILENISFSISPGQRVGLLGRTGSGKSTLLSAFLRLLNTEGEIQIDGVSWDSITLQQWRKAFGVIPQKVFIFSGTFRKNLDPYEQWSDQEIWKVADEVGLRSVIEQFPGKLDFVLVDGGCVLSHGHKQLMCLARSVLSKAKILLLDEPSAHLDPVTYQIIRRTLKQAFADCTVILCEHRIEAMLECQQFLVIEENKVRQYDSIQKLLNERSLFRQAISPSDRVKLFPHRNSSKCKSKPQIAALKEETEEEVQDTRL
"fractional PM activity of G551D, of the WT (G551D-CFTR [1])","lower potency in comparison to VX-770 (G551D-CFTR [2]; HNE, G551D-CFTR, Isc EC50)","EC50 (G551D-CFTR [2]; read-out: EC50 for G551D-CFTR potentiation, HNE, Isc, Supplementary Fig. 6e,f)",EC50 (G551D-CFTR [2]),forskolin-activated Isc relative to that of WT-CFTR (G551D-CFTR [2]; HNE with G551D on both alleles),forskolin-activated Isc relative to that of WT-CFTR (G551D-CFTR [2]; HNE with one copy of G551D),"G551D-CFTR Isc, of WT-function (G551D-CFTR [3])",open probability (Po) of phosphorylated G551D-CFTR (G551D-CFTR [4]; 3 μM VX-770),open probability (Po) of phosphorylated G551D-CFTR upon addition of apigenin (G551D-CFTR [4]; 50 μM apigenin in the presence of 3 μM VX-770),SMILES,"fractional PM activity of S1251N after single potentiator therapy, of WT (S1251N-CFTR)"
7%,7 fold,~300 nM,–,–,–,–,–,–,CC1(C)Cc2c(sc(NC(=O)c3ccn[nH]3)c2C(N)=O)C(C)(C)O1 [ABBV-974],~ 80%
6%,–,–,~40 nM,~ 50%,~ 25%,~ 6%,~ 0.08,–,"CC(C)(C)c1cc(C(C)(C)C)c(NC(=O)c2c[nH]c3ccccc3c2=O)cc1O [VX-770, ivacaftor]",~ 80%
–,–,–,–,–,–,–,–,0.14,O=c1cc(-c2ccc(O)cc2)oc2cc(O)cc(O)c12 [apigenin],–
